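Cells were grown in 96-well plates and exposed to each compound for 48 hours at five concentrations; endpoints were interpolated linearly between bracketing concentrations, or set to the highest concentration if not reached. Abbreviation: GI50, concentration required for 50% inhibition of growth.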 Activity calls are given as the source filed them. Cut-off read from the data, not from the text of the source: active = GI50 up to about 1.1 µM and inactive = higher. Non-standard residues stand in square brackets, D forms with d. Residues, ends and D or L forms follow the SMILES beside them. ΔPro = O=C(O)[CH]1C=CCN1
How the values were obtained:
Assay in all cases: NCI tumour cell line growth inhibition, 48 h
[1] = tested on: MDA-MB-231
[2] = tested on: MOLT-4
[3] = tested on: SW-620
[4] = tested on: DU-145
[5] = tested on: SR
[6] = tested on: MCF7
[7] = tested on: OVCAR-4
[8] = tested on: RPMI-8226
[9] = tested on: M14
[10] = tested on: TK-10
[11] = tested on: SN12C
[12] = tested on: NCI-H23
[13] = tested on: SNB-19
[14] = tested on: Malme-3M
[15] = tested on: HL-60
[16] = tested on: SF-295
[17] = tested on: PC-3
[18] = tested on: HOP-92
[19] = tested on: NCI-H460
[20] = tested on: EKVX

SMILES | GI50 [1] | GI50 [2] | GI50 [3] | GI50 [4] | GI50 [5] | GI50 [6] | GI50 [7] | GI50 [8] | GI50 [9] | GI50 [10] | GI50 [11] | GI50 [12] | GI50 [13] | GI50 [14] | GI50 [15] | GI50 [16] | GI50 [17] | GI50 [18] | GI50 [19] | GI50 [20]
Clc1cc(Cl)cc(/N=C/C=C/Nc2cc(Cl)cc(Cl)c2)c1 | 14.2 µM (inactive) | 19.8 µM (inactive) | 19 µM (inactive) | 21 µM (inactive) | 31.8 µM (inactive) | 13.4 µM (inactive) | 14.6 µM (inactive) | 24.5 µM (inactive) | 22.3 µM (inactive) | 29.9 µM (inactive) | 17.4 µM (inactive) | 14.2 µM (inactive) | 21.4 µM (inactive) | 30.5 µM (inactive) | 19.1 µM (inactive) | 23 µM (inactive) | 16.4 µM (inactive) | 30.8 µM (inactive) | 19.1 µM (inactive) | 5.12 µM (inactive)
O=C(O)C1C=CCN1C(=O)C1C=CCN1C(=O)C1C=CCN1 (stereo not given) (H-[ΔPro]-[ΔPro]-[ΔPro]-OH; configuration not given here) | > 100 µM (inactive) | > 100 µM (inactive) | > 100 µM (inactive) | > 100 µM (inactive) | > 100 µM (inactive) | > 100 µM (inactive) | > 100 µM (inactive) | > 100 µM (inactive) | > 100 µM (inactive) | 30.1 µM (inactive) | > 100 µM (inactive) | > 100 µM (inactive) | > 100 µM (inactive) | > 100 µM (inactive) | > 100 µM (inactive) | > 100 µM (inactive) | > 100 µM (inactive) | > 100 µM (inactive) | > 100 µM (inactive) | > 100 µM (inactive)
O=C(O)[C@@H]1C[C@@H](O)CN1C(=O)OCc1ccccc1 | > 100 µM (inactive) | > 100 µM (inactive) | > 100 µM (inactive) | > 100 µM (inactive) | > 100 µM (inactive) | > 100 µM (inactive) | > 100 µM (inactive) | > 100 µM (inactive) | > 100 µM (inactive) | > 100 µM (inactive) | > 100 µM (inactive) | > 100 µM (inactive) | > 100 µM (inactive) | > 100 µM (inactive) | > 100 µM (inactive) | > 100 µM (inactive) | > 100 µM (inactive) | > 100 µM (inactive) | > 100 µM (inactive) | > 100 µM (inactive)
O=C1C(Cl)=C(N2CCC[C@@H]2CO)C(=O)c2c(O)ccc(O)c21 | 2.02 µM (inactive) | 0.269 µM (active) | 1.4 µM (inactive) | 1.84 µM (inactive) | 2.18 µM (inactive) | 1.16 µM (inactive) | 1.76 µM (inactive) | 0.395 µM (active) | 1.67 µM (inactive) | 1.88 µM (inactive) | 1.79 µM (inactive) | 1.64 µM (inactive) | 1.66 µM (inactive) | 1.64 µM (inactive) | 0.485 µM (active) | 1.79 µM (inactive) | 1.91 µM (inactive) | 1.66 µM (inactive) | 1.73 µM (inactive) | 1.87 µM (inactive)
COc1ccc(NC(=O)CC(=O)n2nc(-c3ccccc3)c(/N=N/c3ccc(C)cc3)c2-c2ccccc2)cc1 | 25.6 µM (inactive) | > 95.9 µM (inactive) | 69.5 µM (inactive) | > 59.7 µM (inactive) | 47.2 µM (inactive) | > 52.1 µM (inactive) | 27.5 µM (inactive) | 55.7 µM (inactive) | 52.6 µM (inactive) | 36.2 µM (inactive) | 38 µM (inactive) | 28.4 µM (inactive) | 21.5 µM (inactive) | 31.5 µM (inactive) | > 100 µM (inactive) | 23.8 µM (inactive) | > 41.4 µM (inactive) | 16.8 µM (inactive) | 35.3 µM (inactive) | 21.8 µM (inactive)
O=C(CCc1ccc(O)c(O)c1)NCCc1ccc(O)c(O)c1 | 25.6 µM (inactive) | 57.7 µM (inactive) | 67.6 µM (inactive) | > 100 µM (inactive) | 23.9 µM (inactive) | 27.8 µM (inactive) | 18.5 µM (inactive) | > 100 µM (inactive) | > 100 µM (inactive) | > 100 µM (inactive) | 37.1 µM (inactive) | > 100 µM (inactive) | > 100 µM (inactive) | > 100 µM (inactive) | 26.8 µM (inactive) | > 100 µM (inactive) | > 100 µM (inactive) | > 100 µM (inactive) | > 100 µM (inactive) | > 100 µM (inactive)
O=c1c2cc([N+](=O)[O-])cnc2sn1-c1ccc(Oc2ccccc2)cc1 | 22.1 µM (inactive) | > 100 µM (inactive) | 57 µM (inactive) | 24.8 µM (inactive) | 49.2 µM (inactive) | 35.3 µM (inactive) | 25.8 µM (inactive) | 41.5 µM (inactive) | 53.8 µM (inactive) | > 100 µM (inactive) | > 100 µM (inactive) | 36.4 µM (inactive) | 32.6 µM (inactive) | 21.7 µM (inactive) | 39.9 µM (inactive) | 31 µM (inactive) | 39.9 µM (inactive) | 23 µM (inactive) | 74.1 µM (inactive) | 70.6 µM (inactive)
Cc1ccc(N)cc1.O=S(=O)(O)/C(=C\c1ccccc1)c1ccccc1 | > 100 µM (inactive) | > 100 µM (inactive) | > 100 µM (inactive) | > 100 µM (inactive) | > 100 µM (inactive) | > 100 µM (inactive) | > 100 µM (inactive) | > 100 µM (inactive) | > 100 µM (inactive) | > 100 µM (inactive) | > 100 µM (inactive) | > 100 µM (inactive) | > 100 µM (inactive) | > 100 µM (inactive) | 53.2 µM (inactive) | > 100 µM (inactive) | > 100 µM (inactive) | > 100 µM (inactive) | > 100 µM (inactive) | > 100 µM (inactive)
CCc1cc2c(c3c1CCCC3=O)CC1(C2)Cc2cc(CC)c3c(c2C1)C(=O)CCC3 | 36.5 µM (inactive) | 35.2 µM (inactive) | > 100 µM (inactive) | > 100 µM (inactive) | 24.1 µM (inactive) | > 100 µM (inactive) | 73.6 µM (inactive) | 46.9 µM (inactive) | > 100 µM (inactive) | > 100 µM (inactive) | > 100 µM (inactive) | > 100 µM (inactive) | > 100 µM (inactive) | 25.3 µM (inactive) | 61 µM (inactive) | > 100 µM (inactive) | 46.5 µM (inactive) | 57.9 µM (inactive) | 93.8 µM (inactive) | > 100 µM (inactive)
Cc1cc(-c2nc3cc(F)ccc3s2)ccc1NC(=O)C(C)N (stereo not given) | 3.77 µM (inactive) | 3.33 µM (inactive) | 4.62 µM (inactive) | 4.42 µM (inactive) | 0.351 µM (active) | 0.0258 µM (active) | 1.02 µM (active) | 5.89 µM (inactive) | 4.93 µM (inactive) | 0.0501 µM (active) | 4.32 µM (inactive) | 2.67 µM (inactive) | 4.72 µM (inactive) | 15.2 µM (inactive) | 0.249 µM (active) | 3.82 µM (inactive) | 4.13 µM (inactive) | 3.97 µM (inactive) | 0.955 µM (active) | 3.1 µM (inactive)
Nc1nc(=O)c2cc(NCc3ccc(C(=O)NC(CCC(=O)O)C(=O)O)cc3)ccc2[nH]1 (stereo not given) | > 100 µM (inactive) | > 100 µM (inactive) | > 100 µM (inactive) | > 100 µM (inactive) | 23.3 µM (inactive) | 6.56 µM (inactive) | > 100 µM (inactive) | > 100 µM (inactive) | 20.8 µM (inactive) | > 100 µM (inactive) | 85.5 µM (inactive) | > 100 µM (inactive) | > 100 µM (inactive) | > 100 µM (inactive) | 21.4 µM (inactive) | 61.8 µM (inactive) | > 100 µM (inactive) | > 100 µM (inactive) | 50 µM (inactive) | > 100 µM (inactive)

From ChEMBL document CHEMBL1201862, “PubChem BioAssay data set” (2004)
